# Biological target: T1, recombinant CETP (rCETP) (Homo sapiens, UniProt P11597)
# T1 sequence (P11597 18-493): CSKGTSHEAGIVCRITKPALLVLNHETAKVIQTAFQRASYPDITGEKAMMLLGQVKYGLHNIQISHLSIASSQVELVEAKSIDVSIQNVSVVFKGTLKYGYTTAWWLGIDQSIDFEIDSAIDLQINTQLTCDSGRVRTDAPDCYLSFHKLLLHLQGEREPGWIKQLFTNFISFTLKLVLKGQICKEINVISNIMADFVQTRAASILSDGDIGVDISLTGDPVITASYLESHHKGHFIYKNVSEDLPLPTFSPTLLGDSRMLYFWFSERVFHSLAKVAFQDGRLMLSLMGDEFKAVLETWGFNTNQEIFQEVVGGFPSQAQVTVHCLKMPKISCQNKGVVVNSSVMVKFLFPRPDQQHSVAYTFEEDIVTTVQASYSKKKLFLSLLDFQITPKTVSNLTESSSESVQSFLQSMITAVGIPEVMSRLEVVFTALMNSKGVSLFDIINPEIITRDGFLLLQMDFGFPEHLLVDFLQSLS
# Test: CETP scintillation proximity assay (transfer of [3H]cholesteryl esters from HDL to biotinylated LDL)
# Format: biochemical
# Details: for IC50: rCETP, 37° C., 4 hours, SPA, read-out: IC50 (inhibition of CETP transfer activity); for activity in the cholesteryl ester transfer protein (CETP) assay: statement in words
# Procedure: This assay used a commercially available CETP Scintillation Proximity Assay kit (Amersham TRKQ7015). In this assay, the transfer of [^3 H]cholesteryl esters from high density lipoprotein (HDL) to biotinylated low density lipoproteins (LDL) was measured following incubation of donor and acceptor particles in the presence of recombinant CETP (rCETP; see Wang S. et al J. Biol. Chem. (1992) 267:1746-17490 which is herein incorporated by reference). Following incubation, the reaction was terminated and transfer was measured in a single step addition of streptavidin SPA beads, formulated in an assay terminal buffer (Amersham). The rate of increase in signal was proportional to the transfer of [^3 H]cholesteryl ester by CETP.
# To 96-well microtiter plates ([…] Microlite) was pipetted 5 μl of sample (or buffer for blank) of appropriate dilution. […] As a control, 5 μl of CETP monoclonal antibody TP-1, 1:10 dilution from ascites was added. The reaction was started by adding 45 μl of the following mixtures to each well.
# 20 μl of assay buffer (from kit)
# 10 μl ^3 H]Cholesteryl ester-HDL (from kit)
# 10 μl of biotinylated LDL (from kit)
# The contents of the plate were mixed briefly by tapping the plate gently and then the plate was sealed with parafiim to prevent evaporation during the incubation. The plates were incubated at 37° C. for 4 hours. After incubation the reaction was stopped by adding 200 μl of streptavidin beads to each well. The beads were shaken gently before addition. The mixture was incubated at room temperature for 30 minutes to allow the assay to come to equilibrium with beads. Dpm were counted on a TopCount (Packard Instrument Company, Downers Grove, Ill.) (A conventional scintillation counter with window settings fully open may also be used).
IC50,activity in the cholesteryl ester transfer protein (CETP) assay,SMILES
2000 nM,active,"COc1ccc(O)c(O)c1CC1=C(C)CC[C@H]2C(C)(C)CCC[C@]12C (relative stereo) [Compound A, wiedendioI-A]"
2900 nM,active,"COc1ccc(O)c(O)c1/C=C1\[C@@H](C)CC[C@H]2C(C)(C)CCC[C@]12C (relative stereo) [Compound B, wiedendioI-B]"

# — patent US5446207A, “Anti-dyslipidemic agents” (Harbor Branch Oceanographic Institution, Inc., priority 1993, dated 1995)
